Format in all cases: cell-based
Data set [1] in a line: Trypan blue exclusion viability assay, normal fibroblast cell lines. Conditions: mouse (NIH3T3), human (HFL), NIH3T3 and HFL cells (normal fibroblast cell lines), 2.5 and 5.0 μM, read-out: percent viability. How it is done: (§1) The effect of FR-20 on the growth of normal and tumor cells of breast and prostate was examine utilizing nine cell lines: NIH/3T3 and HFL (normal fibroblast cell lines); MCF-7 and 361 ([…] breast tumor cell lines); BT-20, 435 and SKBR-3 ([…] breast tumor cell lines); LnCaP (androgen sensitive prostate tumor cell line); PC-3 and DU-145 (androgen insensitive prostate tumor cell line).
(§2) The cells were grown as in Example 22, A. FR-20 was dissolved in DMSO and added to the cells at 2.5 μM and 5.0 μM concentration. To control cells, DMSO was added equivalent to the volume of solvent (DMSO) present at the highest concentration of the compound. The activity of the compound was evaluated after 48 hours by Trypan blue exclusion. […] Nearly 50% of SKBR-3 and BT-20 cells were dead at 2.5 μM and 75% at 5.0 μM concentration of the compound. […] FRI-20 had profound effect on the viability of androgen-dependent LnCaP prostate tumor cell line when compared to androgen-independent DU-145 and PC-3 prostate cell lines. At […] FRI-20, 80% of LnCaP, 40% of PC-3 and 20% of DU-145 cells were killed. At […] FRI-20, 72% of LnCaP, 47% of PC-3 and 40% of DU-145 were killed (FIG. 3B).

The test system of a further data set is OvCar-3. The data set can be described thus: GI50 growth inhibition, trypan blue cell count. As to conditions: Homo sapiens, ovarian, 96 hours after addition. As to the method:
(§3) The human carcinoma cell lines listed in Table 5 below were purchased from ATCC and grown in an appropriate growth medium containing 10% fetal bovine serum (FBS) and antibiotics. The cells were plated at a cell density of 1.0×10^5 cells per […] in 6-well dishes. The cells were treated with various concentrations of (E)-fluorostyryl-4-bromobenzylsulfone 24 hours after plating in a total volume of 1 ml of medium using dimethylsulfoxide (DMSO) as a solvent for the compound. Control cells were treated with DMSO alone. The total number of viable cells was determined 96 hours after the addition of the compound by counting the cells in each well using a hemacytometer after trypan blue staining (viable cells exclude the stain). The counts were done in duplicate and the average was graphed in FIG. 8 as a percentage of the non-treated control group.
(§4) Applying the same protocol as in Example 34, the GI50 for compound FRI-20 treatment of the cell lines in Table 6 was determined: […]

In another data set the test system is Detroit 525. The data set can be described thus: GI50 growth inhibition, trypan blue cell count. As to conditions: Homo sapiens; Turner Syndrome skin fibroblast; 96 hours after addition. How it is done: as §3, §4
The test system of the next data set is MES-SA. The data set can be described thus: GI50 growth inhibition, trypan blue cell count. As to conditions: Homo sapiens, uterine sarcoma, 96 hours after addition. As to the method: as §3, §4
The next data set relates to TE 354. The data set can be described thus: GI50 growth inhibition, trypan blue cell count. Conditions: Homo sapiens; basal cell carcinoma; 96 hours after addition. How it is done:
as §3, §4

The next data set concerns Hs 416.T. The data set can be described thus: GI50 growth inhibition, trypan blue cell count. As to conditions: Homo sapiens; squamous papilloma; 96 hours after addition. As to the method:
as §3, §4

The subject of the next data set is A431. The data set can be described thus: GI50 growth inhibition, trypan blue cell count. Conditions: Homo sapiens, A-431; epidermoid; 96 hours after addition. As to the method:
as §3, §4

The subject of the next data set is Raji. The data set can be described thus: GI50 growth inhibition, trypan blue cell count. As to conditions: Homo sapiens, Burkets lymphoma, 96 hours after addition. How it is done: as §3, §4
A further data set deals with HCT116. The data set can be described thus: GI50 growth inhibition, trypan blue cell count. As to conditions: Homo sapiens, HCT-116; cob-rectal; 96 hours after addition. How it is done: as §3, §4
The next data set concerns H1299. The data set can be described thus: GI50 growth inhibition, trypan blue cell count. As to conditions: Homo sapiens, NCI-H1299; lung, non-small cell; 96 hours after addition. How it is done: as §3, §4
In a further data set the test system is Hs-802.T. The data set can be described thus: GI50 growth inhibition, trypan blue cell count. As to conditions: Homo sapiens; squamous cell carcinoma; 96 hours after addition. As to the method:
as §3, §4

Another data set has as its system CAKI-1. The data set can be described thus: GI50 growth inhibition, trypan blue cell count. As to conditions: Homo sapiens, renal, 96 hours after addition. How it is done: as §3, §4
The next data set concerns H80. The data set can be described thus: GI50 growth inhibition, trypan blue cell count. As to conditions: Homo sapiens; glioblastoma; 96 hours after addition. How it is done: as §3, §4
In the next data set the test system is Hs 456.BT. The data set can be described thus: GI50 growth inhibition, trypan blue cell count. Conditions: Homo sapiens; benign skin lesion; 96 hours after addition. As to the method: as §3, §4
A further data set deals with Daudi. The data set can be described thus: GI50 growth inhibition, trypan blue cell count. Conditions: Homo sapiens, Burkets lymphoma, 96 hours after addition. How it is done: as §3, §4
The test system of another data set is H209. The data set can be described thus: GI50 growth inhibition, trypan blue cell count. Conditions: Homo sapiens, NCI-H209; lung, small cell; 96 hours after addition. As to the method:
as §3, §4

The next data set relates to CEM. The data set can be described thus: GI50 growth inhibition, trypan blue cell count. Conditions: Homo sapiens, CCRF-CEM; acute lymphocytic lymphoma; 96 hours after addition. How it is done: as §3, §4
For the next data set, the system named is N417. The data set can be described thus: GI50 growth inhibition, trypan blue cell count. Conditions: Homo sapiens, lung, small cell, 96 hours after addition. How it is done:
as §3, §4

Another data set deals with CAKI-2. The data set can be described thus: GI50 growth inhibition, trypan blue cell count. Conditions: Homo sapiens, renal, 96 hours after addition. How it is done: as §3, §4
Another data set relates to SK-ov-3. The data set can be described thus: GI50 growth inhibition, trypan blue cell count. Conditions: Homo sapiens, ovarian, 96 hours after addition. As to the method:
as §3, §4

A further data set has as its system SK-MEL-3. The data set can be described thus: GI50 growth inhibition, trypan blue cell count. Conditions: Homo sapiens, SK-MEL3; melanoma; 96 hours after addition. How it is done: as §3, §4
Another data set has as its system BxPC-3. The data set can be described thus: GI50 growth inhibition, trypan blue cell count. As to conditions: Homo sapiens, pancreatic, 96 hours after addition. As to the method:
as §3, §4

Another data set deals with SW1088. The data set can be described thus: GI50 growth inhibition, trypan blue cell count. As to conditions: Homo sapiens, astrocytoma, 96 hours after addition. As to the method:
as §3, §4

The subject of data set [2] is 361 breast tumor cell line. The data set can be described thus: Trypan blue exclusion viability assay, breast tumor cell line. Conditions: 2.5 and 5.0 μM, 48 hours. How it is done:
as §1, §2

In general, viability refers to a read-out of living cells in per cent, often relative to untreated cells. The GI50 is the concentration at which growth is held to half of that of the control. Higher therefore signals less potent growth inhibition. With `O=S(=O)(/C=C/c1ccc(F)cc1)Cc1ccc(Cl)cc1` [Example 11, E-4-fluorostyryl 4-chlorobenzyl Sulfone], in [1], the viability at 48 h was 85 to 90%. Further, the GI50 was 1500 nM in the data set on OvCar-3; 3000 nM in the data set with Detroit 525; 1000 nM in the data set with MES-SA; 4000 nM with TE 354; 4000 nM in the data set on Hs 416.T; 800 nM in the data set on A431. For the same molecule, the 50% growth inhibitory concentration (GI50) with Raji was 2000 nM; with HCT116, 1000 nM; in the data set on H1299, 2000 nM; with Hs-802.T, 4000 nM; in the data set with CAKI-1, 1500 nM; in the data set with H80, 1500 nM. Also, the GI50 with Hs 456.BT turned out to be 3000 nM; with Daudi, 2000 nM; in the data set with H209 it was 1000 nM; in the data set with CEM, 1000 nM; with N417, 1000 nM; with CAKI-2, 1000 nM. For the same molecule, the GI50 stood at 1500 nM in the data set with SK-ov-3, 2000 nM in the data set with SK-MEL-3, 500 nM in the data set with BxPC-3 and 2000 nM in the data set on SW1088. Further, the viable cells in data set [2] is on record as 50-75%.

(Values after patent publication US6548553B2, “Styryl sulfone anticancer agents” (Temple University-of the Commonwealth System of Higher …, priority 1997, dated 2003).)
